Results published in ChEMBL document CHEMBL1201862, “PubChem BioAssay data set” (2004).
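In this assay, cells in 96-well plates receive the compound at five concentrations for 48 hours. Endpoints are linearly interpolated between the surrounding concentrations. At the GI50, growth is halved.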 Calls of active or inactive are those of the source. No stated cut-off is given here; in the data, active = GI50 up to about 1.1 µM and inactive = higher.

Tests used:
Assay in all cases: NCI tumour cell line growth inhibition, 48 h
[1] = test system: A498
[2] = test system: A549
[3] = test system: ACHN
[4] = test system: CCRF-CEM
[5] = test system: DMS-114
[6] = test system: DMS-273
[7] = test system: EKVX
[8] = test system: HCT-116
[9] = test system: HL-60
[10] = test system: HOP-62
[11] = test system: HOP-92
[12] = test system: HT-29
[13] = test system: IGROV-1
[14] = test system: KM-20L2
[15] = test system: KM12
[16] = test system: M14
[17] = test system: M19-MEL
[18] = test system: MOLT-4
[19] = test system: NCI-H226
[20] = test system: NCI-H23
[21] = test system: NCI-H460
[22] = test system: NCI-H522
[23] = test system: OVCAR-5
[24] = test system: OVCAR-8
[25] = test system: RXF 393
[26] = test system: RXF 631
[27] = test system: SF-268
[28] = test system: SF-295
[29] = test system: SK-MEL-28
[30] = test system: SK-OV-3
[31] = test system: SNB-19
[32] = test system: SNB-78
[33] = test system: SR
[34] = test system: TK-10
[35] = test system: U-251
[36] = test system: UACC-257
[37] = test system: UO-31
[38] = test system: 786-0
[39] = test system: CAKI-1
[40] = test system: COLO 205
[41] = test system: DLD-1
[42] = test system: HCC 2998
[43] = test system: HCT-15
[44] = test system: K562
[45] = test system: LOX IMVI
[46] = test system: LXFL 529
[47] = test system: Malme-3M
[48] = test system: OVCAR-3
[49] = test system: OVCAR-4
[50] = test system: RPMI-8226
[51] = test system: SF-539
[52] = test system: SK-MEL-5
[53] = test system: SN12C
[54] = test system: SNB-75
[55] = test system: SW-620
[56] = test system: UACC-62
[57] = test system: XF498
[58] = test system: HOP-18
[59] = test system: SK-MEL-2

With `O=P(O)(O)C1CCCC(P(=O)(O)O)N1` (stereo not given) the GI50 [1] was > 100 µM (inactive), the GI50 [2] was > 100 µM (inactive) and the GI50 [3] was > 100 µM (inactive). The GI50 [4] was > 100 µM (inactive), the GI50 [5] was > 100 µM (inactive) and the GI50 [6] was > 100 µM (inactive). For the same molecule, the GI50 [7] was > 100 µM (inactive), the GI50 [8] was > 100 µM (inactive) and the GI50 [9] was > 100 µM (inactive). The GI50 [10] was > 100 µM (inactive), the GI50 [11] was > 100 µM (inactive) and the GI50 [12] was > 100 µM (inactive). The GI50 [13] was > 100 µM (inactive), the GI50 [14] was > 100 µM (inactive) and the GI50 [15] was > 100 µM (inactive). The GI50 [16] was > 100 µM (inactive), the GI50 [17] was > 100 µM (inactive) and the GI50 [18] was > 100 µM (inactive). For the same molecule, the GI50 [19] was > 100 µM (inactive), the GI50 [20] was > 100 µM (inactive) and the GI50 [21] was > 100 µM (inactive). The GI50 [22] was > 100 µM (inactive), the GI50 [23] was > 100 µM (inactive) and the GI50 [24] was > 100 µM (inactive). The GI50 [25] was > 100 µM (inactive), the GI50 [26] was > 100 µM (inactive) and the GI50 [27] was > 100 µM (inactive). For the same molecule, the GI50 [28] was > 100 µM (inactive), the GI50 [29] was > 100 µM (inactive) and the GI50 [30] was > 100 µM (inactive). The GI50 [31] was > 100 µM (inactive), the GI50 [32] was > 100 µM (inactive) and the GI50 [33] was > 100 µM (inactive). For the same molecule, the GI50 [34] was > 100 µM (inactive), the GI50 [35] was > 100 µM (inactive) and the GI50 [36] was > 100 µM (inactive). For the same molecule, the GI50 [37] was > 100 µM (inactive).
For `COC(=O)OCC1OC(N2C(=O)NC(=O)C(I)C2N=[N+]=[N-])CC1OC(=O)OC` (stereo not given), the GI50 [38] was > 100 µM (inactive), the GI50 [2] was > 100 µM (inactive) and the GI50 [3] was > 100 µM (inactive). For the same molecule, the GI50 [39] was > 100 µM (inactive), the GI50 [4] was > 100 µM (inactive) and the GI50 [40] was > 100 µM (inactive). The GI50 [41] was > 100 µM (inactive), the GI50 [6] was > 100 µM (inactive) and the GI50 [42] was > 100 µM (inactive). For the same molecule, the GI50 [8] was > 100 µM (inactive), the GI50 [43] was over 100 µM and the GI50 [9] was > 100 µM (inactive). The GI50 [10] was > 100 µM (inactive), the GI50 [11] was > 100 µM (inactive) and the GI50 [12] was > 100 µM (inactive). The GI50 [13] was > 100 µM (inactive), the GI50 [44] was > 100 µM (inactive) and the GI50 [14] was > 100 µM (inactive). The GI50 [15] was > 100 µM (inactive), the GI50 [45] was > 100 µM (inactive) and the GI50 [46] was > 100 µM (inactive). For the same molecule, the GI50 [16] was > 100 µM (inactive), the GI50 [17] was > 100 µM (inactive) and the GI50 [18] was > 100 µM (inactive). The GI50 [47] was > 100 µM (inactive), the GI50 [19] was > 100 µM (inactive) and the GI50 [20] was > 100 µM (inactive). The GI50 [21] was > 100 µM (inactive), the GI50 [22] was > 100 µM (inactive) and the GI50 [48] was > 100 µM (inactive). For the same molecule, the GI50 [49] was > 100 µM (inactive), the GI50 [23] was > 100 µM (inactive) and the GI50 [24] was > 100 µM (inactive). The GI50 [50] was > 100 µM (inactive), the GI50 [25] was > 100 µM (inactive) and the GI50 [26] was > 100 µM (inactive). The GI50 [27] was > 100 µM (inactive), the GI50 [28] was > 100 µM (inactive) and the GI50 [51] was > 100 µM (inactive). For the same molecule, the GI50 [29] was > 100 µM (inactive), the GI50 [52] was > 100 µM (inactive) and the GI50 [30] was > 100 µM (inactive). For the same molecule, the GI50 [53] was > 100 µM (inactive), the GI50 [31] was > 100 µM (inactive) and the GI50 [54] was > 100 µM (inactive). For the same molecule, the GI50 [32] was > 100 µM (inactive), the GI50 [33] was > 100 µM (inactive) and the GI50 [55] was > 100 µM (inactive). For the same molecule, the GI50 [34] was > 100 µM (inactive), the GI50 [35] was > 100 µM (inactive) and the GI50 [36] was > 100 µM (inactive). For the same molecule, the GI50 [56] was > 100 µM (inactive), the GI50 [37] was > 100 µM (inactive) and the GI50 [57] was > 100 µM (inactive).
`CC1CC[P+](c2ccccc2)(c2ccccc2)CC1` was tested, and the GI50 [38] was > 100 µM (inactive), the GI50 [1] was > 100 µM (inactive) and the GI50 [2] was > 100 µM (inactive). The GI50 [3] was > 100 µM (inactive), the GI50 [4] was 67.6 µM (inactive) and the GI50 [40] was 18.7 µM (inactive). The GI50 [41] was > 100 µM (inactive), the GI50 [5] was 50.1 µM (inactive) and the GI50 [6] was 68.9 µM (inactive). The GI50 [7] was 68.7 µM (inactive), the GI50 [42] was 20.8 µM (inactive) and the GI50 [8] was > 100 µM (inactive). For the same molecule, the GI50 [43] was over 100 µM, the GI50 [9] was 24.5 µM (inactive) and the GI50 [58] was > 100 µM (inactive). For the same molecule, the GI50 [10] was > 100 µM (inactive), the GI50 [12] was 79.3 µM (inactive) and the GI50 [13] was 98.2 µM (inactive). The GI50 [44] was 91.6 µM (inactive), the GI50 [14] was 89.1 µM (inactive) and the GI50 [15] was 92.5 µM (inactive). For the same molecule, the GI50 [45] was 51.3 µM (inactive), the GI50 [46] was 31.7 µM (inactive) and the GI50 [16] was 88.1 µM (inactive). For the same molecule, the GI50 [17] was 27.6 µM (inactive), the GI50 [18] was > 100 µM (inactive) and the GI50 [47] was > 100 µM (inactive). The GI50 [19] was > 100 µM (inactive), the GI50 [20] was 72.6 µM (inactive) and the GI50 [21] was > 100 µM (inactive). The GI50 [22] was 40.5 µM (inactive), the GI50 [48] was 46.2 µM (inactive) and the GI50 [23] was > 100 µM (inactive). The GI50 [24] was > 100 µM (inactive), the GI50 [50] was 21.2 µM (inactive) and the GI50 [25] was > 100 µM (inactive). The GI50 [28] was > 100 µM (inactive), the GI50 [51] was 78.3 µM (inactive) and the GI50 [29] was > 100 µM (inactive). For the same molecule, the GI50 [59] was 77.3 µM (inactive), the GI50 [52] was 20.8 µM (inactive) and the GI50 [30] was > 100 µM (inactive). For the same molecule, the GI50 [53] was > 100 µM (inactive), the GI50 [31] was 92.3 µM (inactive) and the GI50 [54] was 62.4 µM (inactive). For the same molecule, the GI50 [32] was > 100 µM (inactive), the GI50 [33] was 55.5 µM (inactive) and the GI50 [55] was > 100 µM (inactive). The GI50 [34] was > 100 µM (inactive), the GI50 [35] was 30.5 µM (inactive) and the GI50 [36] was 33.6 µM (inactive). For the same molecule, the GI50 [56] was 58.5 µM (inactive), the GI50 [37] was > 100 µM (inactive) and the GI50 [57] was 25.1 µM (inactive).
